Results on 24 compounds are retold here after US20110130365A1, “Fluorinated Heteroaryls” (priority 2008, published 2011).

The assay deals with T1, Full-length glucokinase (beta cell isoform) (Homo sapiens, UniProt P35557).
T1 construct: Full-length glucokinase (beta cell isoform) was His-tagged at N-terminus; His tag (N); made in house
T1 sequence (P35557 1-465): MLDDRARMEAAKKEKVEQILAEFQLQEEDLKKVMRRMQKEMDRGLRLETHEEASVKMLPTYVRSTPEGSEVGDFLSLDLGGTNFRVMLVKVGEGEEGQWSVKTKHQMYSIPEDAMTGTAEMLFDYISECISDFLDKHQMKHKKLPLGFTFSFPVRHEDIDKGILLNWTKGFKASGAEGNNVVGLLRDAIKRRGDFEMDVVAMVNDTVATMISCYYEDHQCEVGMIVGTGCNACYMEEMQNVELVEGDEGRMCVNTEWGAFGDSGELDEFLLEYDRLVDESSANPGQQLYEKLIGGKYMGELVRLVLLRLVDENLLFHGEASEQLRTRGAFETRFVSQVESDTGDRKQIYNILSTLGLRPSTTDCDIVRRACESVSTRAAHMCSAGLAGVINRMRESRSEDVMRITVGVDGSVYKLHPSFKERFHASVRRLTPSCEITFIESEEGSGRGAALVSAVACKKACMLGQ
Briefly: Glucokinase activation assay (PK/LDH-coupled, NADH depletion at 340 nm). It counts as biochemical. To be noted: 5 mM glucose, 2.5 mM ATP, pH 7.1, room temperature, values given as a range where N>1; for Emax: fitted % max activation, read-out: Maximum Activation. The protocol:
Full-length glucokinase (beta cell isoform) was His-tagged at N-terminus and purified by a Ni column followed by size exclusion chromatography. A 320 mL column was packed in house using Pharmacia Superdex75 preparation grade resin. Glucose was obtained from Calbiochem (San Diego, Calif.) and other reagents were purchased from Sigma (St. Louis, Mo.).
All assays were performed in a Corning 384-well plate using Spectramax PLUS spectrophotometer (Molecular Devices, Sunnyvale, Calif.) at room temperature. The final assay volume was 40 μL. The buffer conditions used in this assay were as follows: 50 mM HEPES, 5 mM glucose, 2.5 mM ATP, 3.5 mM MgCl2, 0.7 mM NADH, 2 mM dithiothreitol, 1 Unit/mL PK/LDH, 0.2 mM phosphoenolpyruvate, and 25 mM KCl. The buffer pH was 7.1. The test compound in DMSO solution was added to the buffer and mixed by a plate shaker for 7.5 minutes. The final concentration of DMSO introduced into the assay was 0.25%.
Glucokinase was added to the buffer mixture to initiate the reaction in the presence and absence of compound. The reaction was monitored by absorbance at 340 nm due to the depletion of NADH. The initial reaction velocity was measured by the slope of a linear time course of 0-300 seconds. The percentage of activation was calculated by the following equation:
% Activation=(Va/Vo−1)×100;
wherein each of Va and Vo is defined as the initial reaction velocity in the presence and absence of the tested compound, respectively.
To determine the EC50 (half maximal effective concentration) and % maximum activation, compounds were serially diluted in DMSO by 3-fold. The GK activities were measured as a function of compound concentrations. The data were fitted to the equation below to obtain the EC50 and % max activation values:
Va/Vo=1+(% max activation/100)/(1+EC50/compound concentration)

SMILES strings stand for the structures. Where a name gives a salt, the structure may show the parent alone.

As a reminder, the EC50 is the concentration that produces a half-maximal response. Low values mean higher potency in that assay, high ones lower potency in that assay. `Cc1cnc(NC(=O)[C@H](CC2CCOCC2)n2ccc(C(F)(F)F)cc2=O)cn1` [Example 42, (S)—N-(5-methylpyrazin-2-yl)-2-(2-oxo-4-(trifluoromethyl)pyridin-1(2H)-yl)-3-(tetrahydro-2H-pyran-4-yl)propanamide]: the EC50 is above 100 µM.

`O=C(Nc1ccon1)[C@H](CC1CCCC1)n1cc(C(F)(F)F)ccc1=O` [Example 18, (S)-3-cyclopentyl-N-(isoxazol-3-yl)-2-(2-oxo-5-(trifluoromethyl)pyridin-1(2H)-yl)propanamide]: the Emax came to 103% and the EC50 was 9.3 µM.

On to `Cc1cnc(NC(=O)[C@H](CC2CCCC2)n2cccc(C(F)(F)F)c2=O)cn1` [Example 5, (S)-3-cyclopentyl-N-(5-methylpyrazin-2-yl)-2-(2-oxo-3-(trifluoromethyl)pyridin-1(2H)-yl)propanamide], for which the Emax is 0% and the EC50 was above 100 µM.

In the case of `Cc1cnc(NC(=O)[C@H](CC2CCCC2)n2cnc(C(F)(F)F)cc2=O)cn1` [Example 22, (S)-3-cyclopentyl-N-(5-methylpyrazin-2-yl)-2-(6-oxo-4-(trifluoromethyl)pyrimidin-1(6H)-yl)propanamide], the Emax was 130% and the EC50 was 20.2 µM.

As to `CCOC(=O)Cc1cnc(NC(=O)[C@H](CC2CCCC2)n2cc(C(F)(F)F)ccc2=O)s1` [Example 25, (S)-ethyl 2-(2-(3-cyclopentyl-2-(2-oxo-5-(trifluoromethyl)pyridin-1(2H)-yl)propanamido)thiazol-5-yl)acetate], the Emax amounted to 84% and the EC50 was determined as 2.9 µM.

Turning to `Cn1ccc(NC(=O)[C@H](CC2CCCC2)n2cc(C(F)(F)F)ccc2=O)n1` [Example 16, (S)-3-cyclopentyl-N-(1-methyl-1H-pyrazol-3-yl)-2-(2-oxo-5-(trifluoromethyl)pyridin-1(2H)-yl)propanamide], the Emax amounted to 125% and the EC50 worked out at 2.5 µM.

Consider `O=C(Nc1ccc2ccccc2n1)[C@H](CC1CCCC1)n1cc(C(F)(F)F)ccc1=O` [Example 19, (S)-3-cyclopentyl-2-(2-oxo-5-(trifluoromethyl)pyridin-1(2H)-yl)-N-(quinolin-2-yl)propanamide], for which the Emax was determined as 89% and the EC50 was determined as 0.5 µM.

For the compound `O=C(Nc1ccncn1)[C@H](CC1CCCC1)n1cc(C(F)(F)F)ccc1=O` [Example 9, (S)-3-cyclopentyl-2-(2-oxo-5-(trifluoromethyl)pyridin-1(2H)-yl)-N-(pyrimidin-4-yl)propanamide], the Emax is 95 to 106% and the EC50 lay in the range of 1.1 to 1.4 µM.

In the case of `CC(C)(O)Cn1ccc(NC(=O)[C@H](CC2CCCC2)n2cc(C(F)(F)F)ccc2=O)n1` [Example 31, (S)-3-cyclopentyl-N-(1-(2-hydroxy-2-methylpropyl)-1H-pyrazol-3-yl)-2-(2-oxo-5-(trifluoromethyl)pyridin-1(2H)-yl)propanamide], the Emax lay within 172 to 194% and the EC50 lay in the range of 1.1 to 2 µM.

For the compound `Cc1ccc(NC(=O)[C@H](CC2CCOCC2)n2cc(C(F)(F)F)ccc2=O)nc1` [Example 38, (S)—N-(5-methylpyridin-2-yl)-2-(2-oxo-5-(trifluoromethyl)pyridin-1(2H)-yl)-3-(tetrahydro-2H-pyran-4-yl)propanamide], the Emax was 57 to 70% and the EC50 is 2.9 to 4.6 µM.

For `CCn1ccc(NC(=O)[C@H](CC2CCCC2)n2ccc(C(F)(F)F)cc2=O)n1` [Example 15, (S)-3-cyclopentyl-N-(1-ethyl-1H-pyrazol-3-yl)-2-(2-oxo-4-(trifluoromethyl)pyridin-1(2H)-yl)propanamide], the Emax amounted to 92% and the EC50 came out at 9.4 µM.

Regarding `O=C(Nc1ccc(C(F)(F)F)cn1)[C@H](CC1CCCC1)n1cc(C(F)(F)F)ccc1=O` [Example 17, (S)-3-cyclopentyl-2-(2-oxo-5-(trifluoromethyl)pyridin-1(2H)-yl)-N-(5-(trifluoromethyl)pyridin-2-yl)propanamide], the Emax amounted to 57% and the EC50 was determined as 0.4 µM.

As to `Cn1ccc(NC(=O)[C@H](CC2CCCC2)n2cnc(C(F)(F)F)cc2=O)n1` [Example 24, (S)-3-cyclopentyl-N-(1-methyl-1H-pyrazol-3-yl)-2-(6-oxo-4-(trifluoromethyl)pyrimidin-1(6H)-yl)propanamide], the Emax turned out to be 106% and the EC50 worked out at 27.1 µM.

Take `Cc1cnc(NC(=O)[C@H](CC2CCOCC2)n2cc(C(F)(F)F)ccc2=O)cn1` [Example 39, (S)—N-(5-methylpyrazin-2-yl)-2-(2-oxo-5-(trifluoromethyl)pyridin-1(2H)-yl)-3-(tetrahydro-2H-pyran-4-yl)propanamide]: the EC50 was above 100 µM.

Turning to `Cc1ccc(NC(=O)[C@H](CC2CCCC2)n2cccc(C(F)(F)F)c2=O)nc1` [Example 2, (S)-3-cyclopentyl-N-(5-methylpyridin-2-yl)-2-(2-oxo-3-(trifluoromethyl)pyridin-1(2H)-yl)propanamide], the Emax was determined as 0% and the EC50 was above 100 µM.

On to `COc1cnc(NC(=O)[C@H](CC2CCCC2)n2cc(C(F)(F)F)ccc2=O)cn1` [Example 20, (S)-3-cyclopentyl-N-(5-methoxypyrazin-2-yl)-2-(2-oxo-5-(trifluoromethyl)pyridin-1(2H)-yl)propanamide], for which the Emax came to 114% and the EC50 came out at 1.2 µM.

As for `CCn1ccc(NC(=O)[C@H](CC2CCCC2)n2cc(C(F)(F)F)ccc2=O)n1` [Example 10, (S)-3-cyclopentyl-N-(1-ethyl-1H-pyrazol-3-yl)-2-(2-oxo-5-(trifluoromethyl)pyridin-1(2H)-yl)propanamide], the Emax lay within 121 to 148% and the EC50 was 1.5 to 2.1 µM.

For the compound `O=C(Nc1ccncn1)[C@H](CC1CCCC1)n1ccc(C(F)(F)F)cc1=O` [Example 14, (S)-3-cyclopentyl-2-(2-oxo-4-(trifluoromethyl)pyridin-1(2H)-yl)-N-(pyrimidin-4-yl)propanamide], the Emax is 58% and a half-maximal effect (EC50) was put at 5.8 µM.

Turning to `CCOP(=O)(Cc1cnc(NC(=O)[C@H](CC2CCCC2)n2cc(C(F)(F)F)ccc2=O)cn1)OCC` [Example 29, (S)-diethyl (5-(3-cyclopentyl-2-(2-oxo-5-(trifluoromethyl)pyridin-1(2H)-yl)propanamido)-pyrazin-2-yl)methylphosphonate], the Emax worked out at 141% and the EC50 was found to be 5.7 µM.

Take `O=C(O)Cc1cnc(NC(=O)[C@H](CC2CCCC2)n2cc(C(F)(F)F)ccc2=O)s1` [Example 26, (S)-2-(2-(3-cyclopentyl-2-(2-oxo-5-(trifluoromethyl)pyridin-1(2H)-yl)propanamido)thiazol-5-yl)acetic acid mono acetic acid salt]: the Emax turned out to be 116% and the EC50 was 11.1 µM.

For the compound `O=C(O)c1ccc(NC(=O)[C@H](CC2CCCC2)n2ccc(C(F)(F)F)cc2=O)nc1` [Example 34, (S)-6-(3-cyclopentyl-2-(2-oxo-4-(trifluoromethyl)pyridin-1(2H)-yl)propanamido)nicotinic acid], the Emax lay within 100 to 102% and the EC50 is 1.8 to 2.7 µM.

Take `O=C(Nc1ccc(CO)cn1)[C@H](CC1CCCC1)n1cc(C(F)(F)F)ccc1=O` [Example 33, (S)-3-cyclopentyl-N-(5-(hydroxymethyl)pyridin-2-yl)-2-(2-oxo-5-(trifluoromethyl)pyridin-1(2H)-yl)propanamide]: the Emax was 85 to 159% and the EC50 lay in the range of 0.3 to 0.5 µM.

`COC(=O)c1ccc(NC(=O)[C@H](CC2CCCC2)n2cc(C(F)(F)F)ccc2=O)nc1` [Example 27, (S)-methyl 6-(3-cyclopentyl-2-(2-oxo-5-(trifluoromethyl)pyridin-1(2H)-yl)propanamido)nicotinate]: the Emax worked out at 84% and a half-maximal response (EC50) required 0.2 µM.

As for `O=C(Nc1cnccn1)[C@H](CC1CCCC1)n1ccc(C(F)(F)F)cc1=O` [Example 13, (S)-3-cyclopentyl-2-(2-oxo-4-(trifluoromethyl)pyridin-1(2H)-yl)-N-(pyrazin-2-yl)propanamide], the Emax was found to be 106% and a half-maximal effect (EC50) was put at 14 µM.
